From patent publication US20250320213A1, “Nitrogen-Containing Heterocyclic Compounds” (Pfizer Inc., priority 2024, published 2025) come the findings set out here.

A value given as a limit tells only on which side of the number the result lay.

One experiment addresses T1, STAT6 (Homo sapiens, UniProt P42226).
T1 construct: stably transfected HaCaT keratinocyte cell line, which expresses NanoLuc luciferase reporter gene under the transcriptional control of the STAT6 responsive promoter; endogenous in cells; host or cells: HaCaT keratinocyte reporter cell line (stably transfected with a NanoLuc reporter)
T1 sequence (P42226 1-847): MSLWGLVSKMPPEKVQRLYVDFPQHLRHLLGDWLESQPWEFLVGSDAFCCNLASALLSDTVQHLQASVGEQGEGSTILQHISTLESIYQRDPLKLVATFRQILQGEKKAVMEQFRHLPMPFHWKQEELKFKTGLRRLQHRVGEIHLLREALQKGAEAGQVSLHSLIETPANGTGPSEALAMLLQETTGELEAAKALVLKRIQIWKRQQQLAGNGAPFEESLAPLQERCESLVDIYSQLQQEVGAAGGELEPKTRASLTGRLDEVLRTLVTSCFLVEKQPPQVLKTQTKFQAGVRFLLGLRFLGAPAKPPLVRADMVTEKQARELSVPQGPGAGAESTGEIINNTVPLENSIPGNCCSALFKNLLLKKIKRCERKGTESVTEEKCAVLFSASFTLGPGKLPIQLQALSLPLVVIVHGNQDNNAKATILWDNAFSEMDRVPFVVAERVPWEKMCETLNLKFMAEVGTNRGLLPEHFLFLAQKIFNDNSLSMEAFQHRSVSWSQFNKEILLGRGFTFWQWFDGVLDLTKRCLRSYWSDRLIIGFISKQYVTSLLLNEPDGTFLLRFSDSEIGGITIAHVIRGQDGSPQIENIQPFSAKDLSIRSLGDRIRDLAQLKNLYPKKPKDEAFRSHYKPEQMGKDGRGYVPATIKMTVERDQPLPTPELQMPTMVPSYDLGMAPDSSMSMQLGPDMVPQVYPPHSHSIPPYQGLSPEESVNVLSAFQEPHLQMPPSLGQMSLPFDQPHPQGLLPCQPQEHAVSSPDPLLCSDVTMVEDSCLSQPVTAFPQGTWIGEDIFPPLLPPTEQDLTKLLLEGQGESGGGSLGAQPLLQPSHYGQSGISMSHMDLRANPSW
In words: STAT6 Reporter Luciferase Assay (IL-13 stimulated HaCaT keratinocyte NanoLuc reporter cells). It counts as cell-based. Conditions: STAT6 NanoLuc luciferase reporter, IL-13 stimulated HaCaT keratinocyte cells; read-out: Reporter EC50. The essentials: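 HaCaT cells stably carrying a NanoLuc reporter driven by the STAT6-responsive IL-13Ra2 promoter were preincubated with compounds for 2 h at 37 °C in 2% FBS medium. Cells were then stimulated with 0.12 nM IL-13 for 4 h, and luminescence was read after Nano-Glo substrate. Compounds ran as 11-point 4-fold dilutions in duplicate.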

Experiment [1] has as its system CCL17 secretion in peripheral human whole blood. In words: Human Whole Blood (HWB) CCL17 TR-FRET Assay (IL-13 stimulated CCL17 secretion). The settings on record: inhibition of CCL17 secretion in human whole blood, 10 ng/mL IL13, 48 hours. The class given is cell-based. The essentials:
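Heparin-anticoagulated human blood; cpd 11-pt 3-fold dilution, duplicate, 2 h 37 °C preinc; IL-13 10 ng/mL final, 48 h 37 °C; spin, serum CCL17 by TR-FRET ELISA, 16 h RT, 665/615 ratio; IC50.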

As for `CN(C)C(=O)Nc1ccc(CNC(=O)c2cnn3c2CN(c2ccc(C(=O)N(C)C)cn2)CC3)cc1` [Example 29, 5-(5-(dimethylcarbamoyl)pyridin-2-yl)-N-(4-(3,3-dimethylureido)benzyl)-4,5,6,7-tetrahydropyrazolo[1,5-a]pyrazine-3-carboxamide], at STAT6, the EC50 amounted to 2.23 µM. Besides, inhibition in experiment [1] (Homo sapiens, 48 h) was half-maximal at 0.878 µM (IC50).

Take `CCn1nc(C(=O)NCc2ccc(NC(=O)N(C)C)cc2)c2c1CCN(c1ccc(-c3nccn3C)cn1)C2` [Example 30, N-(4-(3,3-Dimethylureido)benzyl)-1-ethyl-5-(5-(1-methyl-1H-imidazol-2-yl)pyridin-2-yl)-4,5,6,7-tetrahydro-1H-pyrazolo[4,3-c]pyridine-3-carboxamide]: the EC50 on STAT6 is 0.005 µM. In addition, half-maximal inhibition in experiment [1] (Homo sapiens, 48 h) (IC50) was put at 0.087 µM.

As for `CN(C)C(=O)Nc1ccc(CNC(=O)c2nn(CC(F)(F)F)c3c2CN(c2ccc(C(=O)N(C)C)cn2)CC3)cc1` [Example 31, 5-(5-(dimethylcarbamoyl)pyridin-2-yl)-N-(4-(3,3-dimethylureido)benzyl)-1-(2,2,2-trifluoroethyl)-4,5,6,7-tetrahydro-1H-pyrazolo[4,3-c]pyridine-3-carboxamide], the EC50 on STAT6 worked out at 0.007 µM. This compound also gave an IC50 in experiment [1] (Homo sapiens, 48 h) of 0.085 µM.

As for `CC(C)c1nc(C(=O)NCc2ccc(NC(=O)N(C)C)cc2)c2n1CCN(c1ccc(C(=O)N(C)C)cn1)C2` [Example 32, 7-(5-(dimethylcarbamoyl)pyridin-2-yl)-N-(4-(3,3-dimethylureido)benzyl)-3-isopropyl-5,6,7,8-tetrahydroimidazo[1,5-a]pyrazine-1-carboxamide], the EC50 on STAT6 is 0.009 µM. This compound displayed a concentration for half-maximal inhibition (IC50) in experiment [1] (Homo sapiens, 48 h) of 0.04 µM.

With `CC(C)n1nc(C(=O)NCc2ccc(NC(=O)N(C)C)cc2)c2c1CCN(c1ccc(C(=O)N3Cc4cccnc4C3)cn1)C2` [Example 33, 5-(5-(6,7-dihydro-5H-pyrrolo[3,4-b]pyridine-6-carbonyl)pyridin-2-yl)-N-(4-(3,3-dimethylureido)benzyl)-1-isopropyl-4,5,6,7-tetrahydro-1H-pyrazolo[4,3-c]pyridine-3-carboxamide], the EC50 on STAT6 was determined as 0.002 µM. This compound displayed an IC50 in experiment [1] (Homo sapiens, 48 h) of 0.035 µM.

As to `CC(C)n1nc(C(=O)NCc2ccc(NC(=O)N(C)C)cc2)c2c1CCN(c1ncc(-c3nccn3C)cn1)C2` [Example 34, N-(4-(3,3-Dimethylureido)benzyl)-1-isopropyl-5-(5-(1-methyl-1H-imidazol-2-yl)pyrimidin-2-yl)-4,5,6,7-tetrahydro-1H-pyrazolo[4,3-c]pyridine-3-carboxamide], at STAT6, the EC50 came out at 0.008 µM. This compound came in with an IC50 in experiment [1] (Homo sapiens, 48 h) of 0.071 µM.

As to `CC(C)n1nc(C(=O)NCc2ccc(NC(=O)N(C)C)cc2)c2c1CCN(c1ncc(C(=O)N(C)C)cn1)C2` [Example 35, 5-(5-(Dimethylcarbamoyl)pyrimidin-2-yl)-N-(4-(3,3-dimethylureido)benzyl)-1-isopropyl-4,5,6,7-tetrahydro-1H-pyrazolo[4,3-c]pyridine-3-carboxamide], the EC50 at STAT6 worked out at 0.009 µM. In addition, 0.047 µM corresponded to half-maximal inhibition in experiment [1] (IC50).

Turning to `CCn1nc(C(=O)NCc2ccc(NC(=O)N(C)C)cc2)c2c1CCN(c1ccc(N3CCCC3=O)cn1)C2` [Example 36, N-(4-(3,3-Dimethylureido)benzyl)-1-ethyl-5-(5-(2-oxopyrrolidin-1-yl)pyridin-2-yl)-4,5,6,7-tetrahydro-1H-pyrazolo[4,3-c]pyridine-3-carboxamide], the EC50 at STAT6 is 0.024 µM. Also, the IC50 in experiment [1] (Homo sapiens, 48 h) was determined as 0.254 µM.

For `CC(=O)N1CCCc2cc(N3CCc4c(c(C(=O)NCc5ccc(NC(=O)N(C)C)cc5)nn4C(C)C)C3)ccc21` [Example 37, 5-(1-Acetyl-1,2,3,4-tetrahydroquinolin-6-yl)-N-(4-(3,3-dimethylureido)benzyl)-1-isopropyl-4,5,6,7-tetrahydro-1H-pyrazolo[4,3-c]pyridine-3-carboxamide], the EC50 on STAT6 was 0.03 µM. Inhibition in experiment [1] (Homo sapiens, 48 h) was half-maximal at 0.701 µM (IC50).

As for `CC(C)n1nc(C(=O)NCc2ccc(-c3ncc[nH]3)cc2)c2c1CCN(c1ccc(N3CCCC3=O)cn1)C2` [Example 38, N-(4-(1H-imidazol-2-yl)benzyl)-1-isopropyl-5-(5-(2-oxopyrrolidin-1-yl)pyridin-2-yl)-4,5,6,7-tetrahydro-1H-pyrazolo[4,3-c]pyridine-3-carboxamide], the EC50 on STAT6 amounted to 0.072 µM. In experiment [1] (Homo sapiens, 48 h), the IC50 is 1.64 µM.

`CC(C)n1nc(C(=O)NCc2ccc(NC(=O)N(C)C)cc2)c2c1CCN(c1ccc(C(=O)NCc3ccc(NC(=O)N(C)C)cc3)cn1)C2` [Example 39, N-(4-(3,3-Dimethylureido)benzyl)-5-(5-((4-(3,3-dimethylureido)benzyl)carbamoyl)pyridin-2-yl)-1-isopropyl-4,5,6,7-tetrahydro-1H-pyrazolo[4,3-c]pyridine-3-carboxamide]: at STAT6, the EC50 came out at 0.748 µM. This compound also gave a half-maximal inhibitory concentration (IC50) in experiment [1] (Homo sapiens, 48 h) of over 30 µM.

Consider `CC(C)n1nc(C(=O)NCc2ccc(-c3nnc[nH]3)cc2)c2c1CCN(c1ccc(C(=O)N(C)C)cn1)C2` [Example 40, N-(4-(4H-1,2,4-triazol-3-yl)benzyl)-5-(5-(dimethylcarbamoyl)pyridin-2-yl)-1-isopropyl-4,5,6,7-tetrahydro-1H-pyrazolo[4,3-c]pyridine-3-carboxamide], for which, on STAT6, the EC50 came out at 0.038 µM. Further, in experiment [1] (Homo sapiens, 48 h), half-maximal inhibition (IC50) required 0.324 µM.

Consider `Cc1ccnn1-c1ccc(N2CCc3c(c(C(=O)NCc4ccc(NC(=O)N(C)C)cc4)nn3C(C)C)C2)nc1` [Example 41, N-(4-(3,3-Dimethylureido)benzyl)-1-isopropyl-5-(5-(5-methyl-1H-pyrazol-1-yl)pyridin-2-yl)-4,5,6,7-tetrahydro-1H-pyrazolo[4,3-c]pyridine-3-carboxamide], for which the EC50 at STAT6 amounted to 0.003 µM. In addition, in experiment [1] (Homo sapiens, 48 h), half-maximal inhibition (IC50) was put at 0.093 µM.

Regarding `CN(C)C(=O)Nc1ccc(CNC(=O)c2nc(C(F)(F)F)n3c2CN(c2ccc(-c4nccn4C)cn2)CC3)cc1` [Example 42, N-(4-(3,3-Dimethylureido)benzyl)-7-(5-(1-methyl-1H-imidazol-2-yl)pyridin-2-yl)-3-(trifluoromethyl)-5,6,7,8-tetrahydroimidazo[1,5-a]pyrazine-1-carboxamide], the EC50 on STAT6 is 0.01 µM. This compound came in with an IC50 in experiment [1] (Homo sapiens, 48 h) of 0.136 µM.

Take `CC(C)n1nc(C(=O)NCc2ccc(-c3nccc(=O)[nH]3)cc2)c2c1CCN(c1ccc(C(=O)N(C)C)cn1)C2` [Example 43, 5-(5-(Dimethylcarbamoyl)pyridin-2-yl)-1-isopropyl-N-(4-(6-oxo-1,6-dihydropyrimidin-2-yl)benzyl)-4,5,6,7-tetrahydro-1H-pyrazolo[4,3-c]pyridine-3-carboxamide]: the EC50 on STAT6 came to 0.286 µM. In addition, in experiment [1] (Homo sapiens, 48 h), the midpoint of inhibition, the IC50, lay at 1.3 µM.

On to `CC(C)n1nc(C(=O)NCc2ccc(-c3cccc(=O)[nH]3)cc2)c2c1CCN(c1ccc(C(=O)N(C)C)cn1)C2` [Example 44, 5-(5-(dimethylcarbamoyl)pyridin-2-yl)-1-isopropyl-N-(4-(6-oxo-1,6-dihydropyridin-2-yl)benzyl)-4,5,6,7-tetrahydro-1H-pyrazolo[4,3-c]pyridine-3-carboxamide], for which the EC50 on STAT6 turned out to be 0.503 µM. The same compound registered an IC50 in experiment [1] (Homo sapiens, 48 h) of 5.4 µM.

For the compound `CC(C)n1nc(C(=O)NCc2ccc(NC(=O)N(C)C)cc2)c2c1CCN(c1ccc(-c3nccn3C)cn1)C2` [Example 45, N-(4-(3,3-Dimethylureido)benzyl)-1-isopropyl-5-(5-(1-methyl-1H-imidazol-2-yl)pyridin-2-yl)-4,5,6,7-tetrahydro-1H-pyrazolo[4,3-c]pyridine-3-carboxamide], the EC50 on STAT6 was 0.004 µM. The compound further registered an IC50 in experiment [1] (Homo sapiens, 48 h) of 0.05 µM.

`CN(C)C(=O)Nc1ccc(CNC(=O)c2nn(C3CC3)c3c2CN(c2ccc(-c4nccn4C)cn2)CC3)cc1` [Example 46, 1-cyclopropyl-N-(4-(3,3-dimethylureido)benzyl)-5-(5-(1-methyl-1H-imidazol-2-yl)pyridin-2-yl)-4,5,6,7-tetrahydro-1H-pyrazolo[4,3-c]pyridine-3-carboxamide]: on STAT6, the EC50 came to 0.009 µM. Moreover, 0.11 µM corresponded to half-maximal inhibition in experiment [1] (Homo sapiens, 48 h) (IC50).
